Patent US8987309B2, “Compounds, pharmaceutical compositions and methods of use of 2-aryl pyridylazoles” (The Translational Genomics Research Institute, priority 2009, dated 2015)

What was measured:
[1] = system: PC3; assay: IC50 in tumor cell lines (PC3); assay type: cell-based; conditions: prostate tumor cell line PC3
Description: (§1) Cytotoxicity Assays. Cytotoxicity assays in the mechanism of action studies were performed according to Mosmann (1983), wherein the activity of mitochondrial reductases were measured using 3-(4,5-dimethylthiozol-3-yl)-2,5-diphenyltetrozolium bromide dye. In brief, cells were seeded in 96-well plates and incubated for various times at 37° C. Inhibition of cell growth was measured by adding 3-(4,5-dimethylthiozol-3-yl)-2,5-diphenyltetrozolium bromide dye, and after an additional 4 h of incubation at 37° C., the 96-well plates were centrifuged, and the culture supernatant was removed. DMSO was added to each well to solubilize the formazan crystals, and the optical density was read at 540 nm on a Quant Spectrophotometer (BioTek Instruments, Winooski, Vt.). Cell growth inhibition data are expressed as percentage of survival compared with untreated cells. The IC50 is defined as the drug concentration required to produce 50% growth inhibition. Results are mean S.E.M. (n 3).

[2] = system: DU145; assay: IC50 in tumor cell lines (DU145); assay type: cell-based; conditions: Table 1; prostate tumor cell line DU145
Description: as §1

[3] = system: H460; assay: IC50 in tumor cell lines (H460); assay type: cell-based; conditions: lung tumor cell line H460
Description: as §1

[4] = system: A549; assay: IC50 in tumor cell lines (A549); assay type: cell-based; conditions: lung tumor cell line A549
Description: as §1

[5] = system: OVCAR3; assay: IC50 in tumor cell lines (OVCAR3); assay type: cell-based; conditions: Table 2; ovarian tumor cell line OVCAR3
Description: as §1

[6] = system: A498; assay: IC50 in tumor cell lines (A498); assay type: cell-based; conditions: Table 2; kidney tumor cell line A498
Description: as §1

[7] = system: MDA231; assay: IC50 in tumor cell lines (MDA231); assay type: cell-based; conditions: Table 2; breast tumor cell line MDA231
Description: as §1

[8] = molecular target: T1, PDGFRα (Homo sapiens, UniProt P16234); assay: Initial kinase screening (Amphora), PDGFRα; assay type: biochemical; conditions: 10 μM compound
T1 construct: assay run by Amphora Discovery Corporation (Durham, N.C.)
Description: (§2) Kinase Screening. Initial kinase screening was performed by Amphora Discovery Corporation (Durham, N.C.).

[9] = molecular target: T2, IRAK-4 (Homo sapiens, UniProt Q9NWZ3); assay: Follow-up kinase screening and IC50 (SignalChem), IRAK-4; assay type: biochemical
T2 construct: assay run by SignalChem Pharmaceuticals, Inc. (Richmond, BC, Canada)

[10] = system: BxPC3 DPC-4(−/−) cells; assay: Measurement of apoptosis and necrosis (Annexin V/PI); assay type: cell-based, Human; conditions: 24 to 72 h, highest concentration 1500 nM
Description: Measurement of Apoptosis and Necrosis. Apoptosis and necrosis after DPC-046 treatment was measured at 24 to 72 h by flow cytometry (Vermes et al., 1995) using Annexin V-Alexa Fluor 488 (Invitrogen) and propidium iodide (BioVision, Mountain View, Calif.). Because of the greater photostability of Alexa Fluor 488 over fluorescein isothiocyanate, we substituted Alexa Fluor 488-labeled Annexin V for fluorescein isothiocyanate-labeled Annexin V. Apoptosis was measured by positive Annexin V staining, indicating the translocation of phosphatidylserine on the cell membrane of apoptotic cells, whereas necrosis was measured by dual labeling of Annexin V and propidium iodide of necrotic cells. Unstained cells were deemed alive. Fluorescence of Annexin V-Alexa Fluor 488 and PI was measured on FL1 and FL2, respectively, on a BD Biosciences FACScan using CellQuest Pro software (BD Biosciences). Data are mean S.E.M. (n 3).
Mean±S.E.M., n=3. […] Mean±S.E.M., n=3. […] Mean tumor burden is shown.

[11] = Plasma protein binding (rapid equilibrium dialysis), mouse plasma; assay type: in vitro ADME; conditions: plasma concentration of 3.27 μM
Description: (§3) Plasma Protein Binding. Plasma protein binding of DPC-046 was determined in human and mouse plasma using rapid equilibrium dialysis (RED) devices manufactured by Thermo Fisher Scientific. Plasma pH was adjusted to 7.4 and spiked with DPC-046 to a final plasma concentration of 1 μg/ml. Aliquots (500 μl) of the spiked plasma were placed into the sample chamber, and 750 μl of phosphate-buffered saline were placed into the adjacent chamber. Triplicate samples were loaded into the RED devices. The RED devices were incubated at 37° C. on an orbital shaker operating at 100 rpm for 24 h. […] After the incubation, aliquots of plasma and buffer were removed for the analysis of DPC-046 concentration by LC-MS-MS as described above.

[12] = Plasma protein binding (rapid equilibrium dialysis), human plasma; assay type: in vitro ADME; conditions: plasma concentration of 3.27 μM
Description: as §3

[13] = Storage stability by LC-MS; assay type: physicochemical
Description: Stability Studies. LC-MS was used to evaluate the stability of DPC-046 kept at −20° C. or at 22° C., unprotected from light. After 2 years of storage, there was a measurable (8.6%) loss of parent compound when stored at −20° C. in the dark and a 43.6% loss at 22° C. in light.

[14] = molecular target: T3, PIM-1 (Homo sapiens, UniProt P11309); assay: Initial kinase screening (Amphora), PIM-1; assay type: biochemical; parameters: assay run by Amphora Discovery Corporation (Durham, N.C.); conditions: 10 μM compound
Description: as §2

[15] = molecular target: TrkB (Homo sapiens, UniProt Q16620); assay: Initial kinase screening (Amphora), TrkB; assay type: biochemical; parameters: assay run by Amphora Discovery Corporation (Durham, N.C.); conditions: 10 μM compound
Description: as §2

[16] = system: MiaPaCa-2 tumors; assay: Antitumor efficacy and tolerability, MiaPaCa-2 tumors in SCID mice
Description: In Vivo Studies. Six- to 7-week-old male SCID mice were implanted with 10×10^6 MiaPaCa-2 cells in MatriGel (BD Biosciences) subcutaneously in the flank to establish tumors. Once the tumors reached approximately 100 mm^3 and were palpable (approximately 3 weeks later), DPC-046 treatment was initiated. […] Mice were administered vehicle alone or 44, 55, or 66 mg/kg/day DPC-046 intraperitoneally for 5 consecutive days. Tumor size, body weight, and general health of each mouse were recorded every 3rd day for the duration of the study.
FIG. 15 depicts the antitumor efficacy of (D)PC-046 in SCID mice. 10×10^6 MiaPaCa-2 cells in MatriGel were implanted subcutaneously into the flanks of SCID mice. Mice were randomized on day 6 (arrow) and then injected with vehicle alone or 44 or 55 mg/kg/day (D)PC-046 intraperitoneally daily for 5 consecutive days. Mean tumor burden is shown. Mean±S.D. (n=4 or 5). FIG. 16 depicts the AUC of tumor size versus time of MiaPaCa-2 tumors in SCID mice.

[17] = molecular target: T3, PIM-1; assay: Follow-up kinase screening and IC50 (SignalChem), PIM-1; assay type: biochemical; parameters: assay run by SignalChem Pharmaceuticals, Inc. (Richmond, BC, Canada)
[18] = 25 μM DPC-046, follow-up screen
[19] = highest concentration tested (50 μM)
[20] = 66 mg/kg/day i.p., 5 consecutive days, initial dose-ranging study

T3 sequence (P11309 whole entry): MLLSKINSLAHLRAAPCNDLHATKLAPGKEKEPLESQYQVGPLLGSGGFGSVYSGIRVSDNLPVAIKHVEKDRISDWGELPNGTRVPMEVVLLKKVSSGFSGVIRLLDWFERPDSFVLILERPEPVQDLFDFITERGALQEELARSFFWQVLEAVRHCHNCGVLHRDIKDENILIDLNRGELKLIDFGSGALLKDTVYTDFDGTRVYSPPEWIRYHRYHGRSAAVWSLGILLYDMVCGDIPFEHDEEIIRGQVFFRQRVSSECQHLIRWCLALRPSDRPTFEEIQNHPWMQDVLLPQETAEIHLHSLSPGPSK
T2 sequence (Q9NWZ3 whole entry): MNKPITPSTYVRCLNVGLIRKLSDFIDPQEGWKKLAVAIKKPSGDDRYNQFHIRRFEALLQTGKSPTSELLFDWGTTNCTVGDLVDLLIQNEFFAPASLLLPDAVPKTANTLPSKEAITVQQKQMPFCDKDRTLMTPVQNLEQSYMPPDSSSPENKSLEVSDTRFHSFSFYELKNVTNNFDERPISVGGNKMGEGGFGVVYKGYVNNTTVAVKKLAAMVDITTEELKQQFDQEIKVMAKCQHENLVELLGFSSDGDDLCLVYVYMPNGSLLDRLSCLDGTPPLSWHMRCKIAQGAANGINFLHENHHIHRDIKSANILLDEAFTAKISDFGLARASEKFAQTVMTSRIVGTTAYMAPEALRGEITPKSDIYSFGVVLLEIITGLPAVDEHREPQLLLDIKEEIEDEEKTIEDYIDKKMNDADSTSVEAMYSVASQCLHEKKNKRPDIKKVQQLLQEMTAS
TrkB, sequence (Q16620 32-822): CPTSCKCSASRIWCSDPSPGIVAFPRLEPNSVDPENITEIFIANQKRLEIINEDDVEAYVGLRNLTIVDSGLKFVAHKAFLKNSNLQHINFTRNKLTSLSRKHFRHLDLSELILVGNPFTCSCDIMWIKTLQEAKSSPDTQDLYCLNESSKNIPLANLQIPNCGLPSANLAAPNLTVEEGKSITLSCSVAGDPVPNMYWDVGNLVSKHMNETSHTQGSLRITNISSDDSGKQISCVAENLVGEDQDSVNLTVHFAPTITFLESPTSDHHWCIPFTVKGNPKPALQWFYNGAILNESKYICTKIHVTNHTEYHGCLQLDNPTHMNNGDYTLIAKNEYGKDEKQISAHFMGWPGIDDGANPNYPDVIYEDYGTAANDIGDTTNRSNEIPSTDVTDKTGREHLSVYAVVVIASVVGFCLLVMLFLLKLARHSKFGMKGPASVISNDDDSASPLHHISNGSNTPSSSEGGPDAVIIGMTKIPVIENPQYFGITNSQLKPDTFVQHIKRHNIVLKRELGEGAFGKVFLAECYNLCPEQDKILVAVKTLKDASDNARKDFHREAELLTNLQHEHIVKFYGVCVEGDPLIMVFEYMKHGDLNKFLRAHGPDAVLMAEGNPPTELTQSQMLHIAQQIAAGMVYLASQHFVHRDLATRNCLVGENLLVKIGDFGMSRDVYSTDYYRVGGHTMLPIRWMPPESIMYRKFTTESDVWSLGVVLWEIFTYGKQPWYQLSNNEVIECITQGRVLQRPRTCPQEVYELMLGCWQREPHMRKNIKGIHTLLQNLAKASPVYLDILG
T1 sequence (P16234 24-1089, species assumed): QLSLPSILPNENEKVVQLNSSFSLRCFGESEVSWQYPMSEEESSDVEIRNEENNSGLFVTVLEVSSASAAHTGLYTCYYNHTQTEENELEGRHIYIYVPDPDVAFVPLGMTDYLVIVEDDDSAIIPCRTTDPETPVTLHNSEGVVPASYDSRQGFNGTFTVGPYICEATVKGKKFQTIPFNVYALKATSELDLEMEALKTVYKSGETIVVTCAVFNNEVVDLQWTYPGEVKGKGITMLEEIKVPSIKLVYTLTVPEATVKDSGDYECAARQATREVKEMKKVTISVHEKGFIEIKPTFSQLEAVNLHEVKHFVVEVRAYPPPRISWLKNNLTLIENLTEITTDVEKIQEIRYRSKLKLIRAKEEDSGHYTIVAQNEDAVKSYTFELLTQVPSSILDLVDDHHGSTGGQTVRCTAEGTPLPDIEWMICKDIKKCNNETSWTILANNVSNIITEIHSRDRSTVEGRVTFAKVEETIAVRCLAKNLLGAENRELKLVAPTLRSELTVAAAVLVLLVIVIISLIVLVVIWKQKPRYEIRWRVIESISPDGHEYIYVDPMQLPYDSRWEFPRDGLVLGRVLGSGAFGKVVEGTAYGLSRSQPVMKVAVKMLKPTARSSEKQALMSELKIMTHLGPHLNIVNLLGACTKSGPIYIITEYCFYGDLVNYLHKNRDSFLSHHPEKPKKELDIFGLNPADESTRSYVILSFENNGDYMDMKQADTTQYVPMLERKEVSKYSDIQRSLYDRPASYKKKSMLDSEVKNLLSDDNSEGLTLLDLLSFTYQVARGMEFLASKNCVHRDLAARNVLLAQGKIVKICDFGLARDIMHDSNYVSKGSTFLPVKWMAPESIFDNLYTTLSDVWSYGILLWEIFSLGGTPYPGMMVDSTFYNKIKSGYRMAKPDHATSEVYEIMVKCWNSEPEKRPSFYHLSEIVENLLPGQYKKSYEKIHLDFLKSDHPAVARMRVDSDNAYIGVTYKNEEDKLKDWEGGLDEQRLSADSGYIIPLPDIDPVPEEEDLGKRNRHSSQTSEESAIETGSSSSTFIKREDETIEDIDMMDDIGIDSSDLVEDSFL

COc1ccc(-c2cnc(-c3ccncc3-c3cccc(OC)c3)o2)cc1 [DPC046]
IC50 ([1]; Table 1): 6.5 nM
IC50 ([1]; Table 2): 6.5 nM
IC50 [2]: 27 nM
IC50 ([3]; Table 1): 25 nM
IC50 ([3]; Table 2): 25 nM
IC50 ([4]; Table 1): 22 nM
IC50 ([4]; Table 2): 22 nM
IC50 [5]: 13 nM
IC50 [6]: 14 nM
IC50 [7]: 17 nM
inhibition of PDGFRα [8]: 46%
inhibition of IRAK-4 [9, 18]: more than 70%
inhibition of IRAK-4 [9, 19]: 92%
mechanism of cell death (in words) ([10]; listed as (D)PC-046): both early apoptotic and necrotic cell death
mechanism of cell death (in words) ([10]; listed as DPC-046): cell death by a combination of apoptosis and necrosis
bound to plasma proteins [11]: 91%
bound to plasma proteins [12]: 85%
loss of parent compound ([13]; 2 years of storage at 22° C. in light): 43.6%
loss of parent compound ([13]; 2 years of storage at −20° C. in the dark): 8.6%
inhibition of PIM-1 [14]: 50%
inhibition of TrkB [15]: 55%
antitumor efficacy (in words) ([16]; 44 mg/kg/day daily for 5 days): not effective
average loss of body weight ([16]; 55 mg/kg/day group, while receiving injections, recovered by end of study): 15.8%
area under the tumor size X time curve vs controls (in words) ([16]; 55 mg/kg/day group, p=0.014): statistically significant reduction
weight loss ([16]; 55 mg/kg/day, daily for 5 days, initial study): 10%
MiaPaCa-2 tumor growth vs untreated controls (in words) ([16]; 55 mg/kg/day, daily for 5 days, preliminary data not shown): reduced MiaPaCa-2 tumor growth
tolerability (in words) ([16]; 66 mg/kg/day i.p., 5 consecutive days): not tolerated
death [16, 20]: 60%
weight loss [16, 20]: −15%
MiaPaCa-2 tumor growth vs untreated group (in words) ([16]; experiment comparing 44 or 55 mg/kg/day daily for 5 days): significant inhibition of MiaPaCa-2 tumor growth
inhibition of PIM-1 [17, 18]: more than 70%
IC50 ([17]; eight-point concentration range 10 nM to 50 μM): 19100 nM
inhibition of PIM-1 [17, 19]: 84%
